Experiments:
Type in all cases: cell-based
Proteus mirabilis = experiment: Alanyl-peptidase detection on agar medium (Example 13); conditions: 25 mg/l
Protocol: (§1) The detection media were prepared by mixing 3.6 g of biogelytone (bioMérieux), 2.16 g of meat extract (bioMérieux), 1.26 g of malt extract (bioMérieux), 5.76 g of NaCl (Merck) and 10.8 g of agar (bioMérieux).
(§2) 720 ml of osmosed water were added to the powder, and the mixture was then melted in a waterbath at […]. The product was separated into two flasks, each of 360 ml. Autoclaving was carried out at 121° C. for 15 min and the product was cooled to […]. in a waterbath.
(§3) L-Alanyl-7-amino-4-methylcoumarin (Ala-AMC, Bachem) was then added to the first flask as a control, at the final concentration of 50 mg/l, and L-alanyl-9-aminobenzo[a]phenoxazin-5-one (Ala-ABP, substrate of the invention obtained in Example 2, in which the amino acid is L-alanine), was then added to the second flask at the final concentration of 25 mg/l.
(§4) The size of the colonies, their coloration and also the intensity of this coloration were noted.

Candida glabrata = experiment: as above; conditions: 25 mg/l
Protocol: as §1, §2, §3, §4

Pseudomonas aeruginosa = experiment: as above; conditions: 25 mg/l; on color of the colony: key: B corresponds to fluorescent blue; R corresponds to pink
Protocol: as §1, §2, §3, §4

Hafnia alvei = experiment: as above; conditions: 25 mg/l
Protocol: as §1, §2, §3, §4

Serratia marcescens [1] = experiment: as above; conditions: 25 mg/l
Protocol: as §1, §2, §3, §4

[2] = system: Staphylococcus saprophyticus; experiment: as above; conditions: 25 mg/l
Protocol: as §1, §2, §3, §4

Staphylococcus aureus [3] = experiment: as above; conditions: 25 mg/l
Protocol: as §1, §2, §3, §4

Streptococcus pyogenes = experiment: as above; conditions: 25 mg/l
Protocol: as §1, §2, §3, §4

Salmonella typhimurium = experiment: as above; conditions: 25 mg/l
Protocol: as §1, §2, §3, §4

Enterobacter cloacae = experiment: as above; conditions: 25 mg/l
Protocol: as §1, §2, §3, §4

Enterococcus faecium = experiment: as above; conditions: 25 mg/l
Protocol: as §1, §2, §3, §4

Streptococcus agalactiae = experiment: as above; conditions: 25 mg/l
Protocol: as §1, §2, §3, §4

Enterococcus faecalis = experiment: Leucine-peptidase detection on agar medium (Example 11); on color of the colony: key: B corresponds to fluorescent blue; R corresponds to pink
Protocol: (§5) The detection medium was prepared by mixing 1.4 g of biogelytone (bioMérieux), 0.84 g of meat extract (bioMérieux), 2.24 g of NaCl (Merck), 280 μl of a solution of IPTG (isopropylthio-β-D-galactopyranoside, BIOSYNTH) in water (concentration 10 g/l) and 4.2 g of European agar (bioMérieux).
(§6) The substrate of the invention obtained in Example 2, in which the amino acid is leucine (leucine-9-aminobenzo[a]phenoxazin-5-one or Leu-ABP), or else a substrate of the prior art, which is leucine-aminomethylcoumarin (Leu-AMC, BACHEM), was then added in the following way: 280 ml of osmosed water were added to the medium, and the mixture was melted in a waterbath at 100° C. The mixture was autoclaved for 15 min at 121° C. and cooled to 50° C. in a waterbath.
(§7) The medium was then poured into Petri dishes.
(§8) The coloration of these colonies, the diffusion, and also the intensity of this coloration were noted.
(§9) The results were expressed as intensity of coloration using an arbitrary scale ranging from 0 to 4 as a basis and also as diffusion also using an arbitrary scale ranging from 0 to 4 as a basis.

Serratia marcescens [4] = experiment: as above
Protocol: as §5, §6, §7, §8, §9

Staphylococcus aureus [5] = experiment: as above
Protocol: as §5, §6, §7, §8, §9

“L-alanyl-9-aminobenzo[a]phenoxazin-5-one [Ala-ABP]” was tested, and the “color of the colony” value (Proteus mirabilis; 24 h) was “R”, the growth diameter (Proteus mirabilis; 24 h) was 1.7 mm and the “intensity of coloration, scale 0 to 4” value (Proteus mirabilis; 24 h) was 0.5. For the same substance, the “color of the colony” value (Proteus mirabilis; 48 h) was “R”, the growth diameter (Proteus mirabilis; 48 h) was 1.7 mm and the “intensity of coloration, scale 0 to 4” value (Proteus mirabilis; 48 h) was 1.5. For the same substance, the growth diameter (Candida glabrata; 24 h) was 0.1 mm, the growth diameter (Candida glabrata; 48 h) was 0.3 mm and the “color of the colony” value (Pseudomonas aeruginosa; 24 h) was “R”. For the same substance, the growth diameter (Pseudomonas aeruginosa; 24 h) was 0.3 mm, the “intensity of coloration, scale 0 to 4” value (Pseudomonas aeruginosa; 24 h) was 1.7 and the “color of the colony” value (Pseudomonas aeruginosa; 48 h) was “R”. For the same substance, the growth diameter (Pseudomonas aeruginosa; 48 h) was 0.5 mm, the “intensity of coloration, scale 0 to 4” value (Pseudomonas aeruginosa; 48 h) was 3 and the “color of the colony” value (Hafnia alvei; 24 h) was “R”. The growth diameter (Hafnia alvei; 24 h) was 0.5 mm, the “intensity of coloration, scale 0 to 4” value (Hafnia alvei; 24 h) was 0.5 and the “color of the colony” value (Hafnia alvei; 48 h) was “R”. For the same substance, the growth diameter (Hafnia alvei; 48 h) was 0.5 mm, the “intensity of coloration, scale 0 to 4” value (Hafnia alvei; 48 h) was 1.5 and the “color of the colony” value (Serratia marcescens [1]; 24 h) was “R”. The growth diameter (Serratia marcescens [1]; 24 h) was 0.5 mm, the “intensity of coloration, scale 0 to 4” value (Serratia marcescens [1]; 24 h) was 2 and the “color of the colony” value (Serratia marcescens [1]; 48 h) was “R”. The growth diameter (Serratia marcescens [1]; 48 h) was 1 mm, the “intensity of coloration, scale 0 to 4” value (Serratia marcescens [1]; 48 h) was 3 and the growth diameter ([2]; 24 h) was 0.1 mm. For the same substance, the growth diameter ([2]; 48 h) was 0.3 mm, the growth diameter (Staphylococcus aureus [3]; 24 h) was 0.1 mm and the growth diameter (Staphylococcus aureus [3]; 48 h) was 0.3 mm. The growth diameter (Streptococcus pyogenes; 24 h) was 0.1 mm, the growth diameter (Streptococcus pyogenes; 48 h) was 0.2 mm and the “color of the colony” value (Salmonella typhimurium; 24 h) was “R”. The growth diameter (Salmonella typhimurium; 24 h) was 1 mm, the “intensity of coloration, scale 0 to 4” value (Salmonella typhimurium; 24 h) was 0.5 and the “color of the colony” value (Salmonella typhimurium; 48 h) was “R”. For the same substance, the growth diameter (Salmonella typhimurium; 48 h) was 1.5 mm, the “intensity of coloration, scale 0 to 4” value (Salmonella typhimurium; 48 h) was 1 and the “color of the colony” value (Enterobacter cloacae; 24 h) was “R”. For the same substance, the growth diameter (Enterobacter cloacae; 24 h) was 0.7 mm, the “intensity of coloration, scale 0 to 4” value (Enterobacter cloacae; 24 h) was 1.5 and the “color of the colony” value (Enterobacter cloacae; 48 h) was “R”. For the same substance, the growth diameter (Enterobacter cloacae; 48 h) was 0.7 mm, the “intensity of coloration, scale 0 to 4” value (Enterobacter cloacae; 48 h) was 2 and the growth diameter (Enterococcus faecium; 24 h) was 0.2 mm. It also gave a growth diameter (Enterococcus faecium; 48 h) of 0.3 mm, a growth diameter (Streptococcus agalactiae; 24 h) of 0.1 mm and a growth diameter (Streptococcus agalactiae; 48 h) of 0.2 mm.

“leucine-9-aminobenzo[a]phenoxazin-5-one [Leu-ABP]” was tested, and the “color of the colony” value (Enterococcus faecalis; 24 h, 25 mg/l) was “R”, the growth diameter (Enterococcus faecalis; 24 h, 25 mg/l) was 0.3 mm and the “intensity of coloration, scale 0 to 4” value (Enterococcus faecalis; 24 h, 25 mg/l) was 0.0. For the same substance, the “color of the colony” value (Enterococcus faecalis; 24 h, 50 mg/l) was “R”, the growth diameter (Enterococcus faecalis; 24 h, 50 mg/l) was 0.3 mm and the “intensity of coloration, scale 0 to 4” value (Enterococcus faecalis; 24 h, 50 mg/l) was 0.0. It also gave a growth diameter (Enterococcus faecalis; 24 h, 100 mg/l) of 0.3 mm, a growth diameter (Enterococcus faecalis; 24 h, 200 mg/l) of 0.3 mm and a growth diameter (Enterococcus faecalis; 24 h, 400 mg/l) of 0.3 mm. The “color of the colony” value (Enterococcus faecalis; 48 h, 25 mg/l) was “R”, the growth diameter (Enterococcus faecalis; 48 h, 25 mg/l) was 0.3 mm and the “intensity of coloration, scale 0 to 4” value (Enterococcus faecalis; 48 h, 25 mg/l) was 0.0. The “color of the colony” value (Enterococcus faecalis; 48 h, 50 mg/l) was “R”, the growth diameter (Enterococcus faecalis; 48 h, 50 mg/l) was 0.3 mm and the “intensity of coloration, scale 0 to 4” value (Enterococcus faecalis; 48 h, 50 mg/l) was 0.0. The “color of the colony” value (Enterococcus faecalis; 48 h, 100 mg/l) was “R”, the growth diameter (Enterococcus faecalis; 48 h, 100 mg/l) was 0.3 mm and the “intensity of coloration, scale 0 to 4” value (Enterococcus faecalis; 48 h, 100 mg/l) was 0.0. For the same substance, the growth diameter (Enterococcus faecalis; 48 h, 200 mg/l) was 0.3 mm, the “color of the colony” value (Enterococcus faecalis; 48 h, 400 mg/l) was “R” and the growth diameter (Enterococcus faecalis; 48 h, 400 mg/l) was 0.3 mm. The “intensity of coloration, scale 0 to 4” value (Enterococcus faecalis; 48 h, 400 mg/l) was 0.5, the “color of the colony” value (Serratia marcescens [4]; 24 h, 25 mg/l) was “R” and the growth diameter (Serratia marcescens [4]; 24 h, 25 mg/l) was 0.5 mm. For the same substance, the “intensity of coloration, scale 0 to 4” value (Serratia marcescens [4]; 24 h, 25 mg/l) was 0.5, the “color of the colony” value (Serratia marcescens [4]; 24 h, 50 mg/l) was “R” and the growth diameter (Serratia marcescens [4]; 24 h, 50 mg/l) was 0.4 mm. For the same substance, the “intensity of coloration, scale 0 to 4” value (Serratia marcescens [4]; 24 h, 50 mg/l) was 1, the “color of the colony” value (Serratia marcescens [4]; 24 h, 100 mg/l) was “R” and the growth diameter (Serratia marcescens [4]; 24 h, 100 mg/l) was 0.4 mm. The “intensity of coloration, scale 0 to 4” value (Serratia marcescens [4]; 24 h, 100 mg/l) was 0.25, the growth diameter (Serratia marcescens [4]; 24 h, 200 mg/l) was 0.4 mm and the growth diameter (Serratia marcescens [4]; 24 h, 400 mg/l) was 0.4 mm. The “color of the colony” value (Serratia marcescens [4]; 48 h, 25 mg/l) was “R”, the growth diameter (Serratia marcescens [4]; 48 h, 25 mg/l) was 0.7 mm and the “intensity of coloration, scale 0 to 4” value (Serratia marcescens [4]; 48 h, 25 mg/l) was 2.5. For the same substance, the “color of the colony” value (Serratia marcescens [4]; 48 h, 50 mg/l) was “R”, the growth diameter (Serratia marcescens [4]; 48 h, 50 mg/l) was 0.5 mm and the “intensity of coloration, scale 0 to 4” value (Serratia marcescens [4]; 48 h, 50 mg/l) was 3. For the same substance, the “color of the colony” value (Serratia marcescens [4]; 48 h, 100 mg/l) was “R”, the growth diameter (Serratia marcescens [4]; 48 h, 100 mg/l) was 0.5 mm and the “intensity of coloration, scale 0 to 4” value (Serratia marcescens [4]; 48 h, 100 mg/l) was 1.5. The “color of the colony” value (Serratia marcescens [4]; 48 h, 200 mg/l) was “R”, the growth diameter (Serratia marcescens [4]; 48 h, 200 mg/l) was 0.5 mm and the “intensity of coloration, scale 0 to 4” value (Serratia marcescens [4]; 48 h, 200 mg/l) was 1. For the same substance, the “color of the colony” value (Serratia marcescens [4]; 48 h, 400 mg/l) was “R”, the growth diameter (Serratia marcescens [4]; 48 h, 400 mg/l) was 0.5 mm and the “intensity of coloration, scale 0 to 4” value (Serratia marcescens [4]; 48 h, 400 mg/l) was 0.5. For the same substance, the growth diameter (Staphylococcus aureus [5]; 24 h, 25 mg/l) was 0.3 mm, the growth diameter (Staphylococcus aureus [5]; 24 h, 50 mg/l) was 0.2 mm and the “color of the colony” value (Staphylococcus aureus [5]; 48 h, 25 mg/l) was “R”. The growth diameter (Staphylococcus aureus [5]; 48 h, 25 mg/l) was 0.7 mm, the “intensity of coloration, scale 0 to 4” value (Staphylococcus aureus [5]; 48 h, 25 mg/l) was 0.25 and the growth diameter (Staphylococcus aureus [5]; 48 h, 50 mg/l) was 0.2 mm.

Source: US7695930B2, “Method for the detection, identification and/or quantification of microoganisms with peptidase activity using phenoxazinone derivatives as enzyme substrates” (Biomerieux, priority 2003, dated 2010)
